Test results reported in patent US7491794B2, “Macrocyclic compounds as inhibitors of viral replication” (Intermune, Inc., priority 2003, dated 2009).

What was measured:
[1] = from C=CCCCCC[C@H](NC(=O)OC(C)(C)C)C(=O)N1C[C@H](O)C[C@H]1C(=O)N[C@]1(C(=O)OCC)C[C@H]1C=C; rcm bond; Hoveyda catalyst; DCE; 10.0 mM; 50.0 °C; 16.0 h
[2] = from 1R-{[1-(2S-tert-Butoxycarbonylamino-non-8-enoyl)-4R-hydroxy-pyrrolidine-2S-carbonyl]-amino}-2S-vinyl-cyclopropanecarboxylic acid ethyl ester; rcm bond; 15-membered ring; Hoveyda catalyst (0.25 equiv); DCE; 10.0 mM; 50.0 °C
[3] = Rat hepatocyte incubation assay (stability in vitro); format: in vitro ADME; conditions: rat hepatocytes
hERG channel = hERG channel (Homo sapiens, UniProt Q12809); test: Inhibition of hERG channel activity; conditions: highest concentrations tested (10 μM)
Chain of hERG channel (Q12809 whole entry): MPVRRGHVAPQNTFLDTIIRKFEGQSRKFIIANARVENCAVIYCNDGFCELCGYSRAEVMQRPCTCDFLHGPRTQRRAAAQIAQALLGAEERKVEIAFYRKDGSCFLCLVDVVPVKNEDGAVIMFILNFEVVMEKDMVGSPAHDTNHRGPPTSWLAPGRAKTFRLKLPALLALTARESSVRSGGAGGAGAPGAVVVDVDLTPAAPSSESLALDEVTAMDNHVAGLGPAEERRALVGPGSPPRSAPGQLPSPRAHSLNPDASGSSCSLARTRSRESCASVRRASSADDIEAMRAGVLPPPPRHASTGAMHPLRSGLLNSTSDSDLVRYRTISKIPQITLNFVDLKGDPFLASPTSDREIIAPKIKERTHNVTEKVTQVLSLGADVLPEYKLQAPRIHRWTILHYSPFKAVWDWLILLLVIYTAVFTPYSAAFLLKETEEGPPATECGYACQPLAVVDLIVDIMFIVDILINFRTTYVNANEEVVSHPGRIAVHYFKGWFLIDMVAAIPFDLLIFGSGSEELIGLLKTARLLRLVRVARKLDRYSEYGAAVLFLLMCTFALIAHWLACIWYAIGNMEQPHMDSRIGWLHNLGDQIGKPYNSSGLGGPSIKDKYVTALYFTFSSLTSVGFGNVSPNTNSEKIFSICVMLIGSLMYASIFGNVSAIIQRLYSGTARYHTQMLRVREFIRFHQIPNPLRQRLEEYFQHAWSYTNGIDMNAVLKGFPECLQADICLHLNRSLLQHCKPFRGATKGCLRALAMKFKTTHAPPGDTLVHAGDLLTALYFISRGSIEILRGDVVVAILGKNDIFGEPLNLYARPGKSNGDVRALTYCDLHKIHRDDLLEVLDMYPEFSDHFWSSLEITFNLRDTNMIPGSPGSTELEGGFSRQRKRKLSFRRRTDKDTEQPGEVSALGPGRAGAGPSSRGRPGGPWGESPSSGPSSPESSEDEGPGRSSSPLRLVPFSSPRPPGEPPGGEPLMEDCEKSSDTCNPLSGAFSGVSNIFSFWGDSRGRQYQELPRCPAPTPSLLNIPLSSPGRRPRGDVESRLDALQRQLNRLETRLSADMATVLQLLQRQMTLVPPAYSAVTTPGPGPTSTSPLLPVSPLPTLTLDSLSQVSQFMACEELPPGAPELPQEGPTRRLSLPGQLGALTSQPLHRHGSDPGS

[4] = Dog hepatocyte incubation assay (stability in vitro); format: in vitro ADME; conditions: dog hepatocytes
[5] = system: panel of other serine proteases; test: Selectivity against a panel of other serine proteases; format: biochemical
[6] = Human hepatocyte incubation assay (stability in vitro); format: in vitro ADME; conditions: human hepatocytes
Cytochrome P450 isoforms = test: Inhibition of Cytochrome P450 isoforms; format: in vitro ADME; conditions: highest concentrations tested (10 μM)
[7] = system: HCV sub-genomic replicon, GS4.3; test: Quantitation by ELISA of NPTII in the HCV sub-genomic replicon, GS4.3, Section B; format: cell-based; conditions: Hepatitis C virus; read-out: replicon EC50 value
How it was run: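 NPTII marker protein in lysates was quantified by ELISA read at 450 nm after 72 h inhibitor exposure (3-fold series, final DMSO 1%, G418-free medium) of HuH-7 cells stably harbouring the subgenomic HCV replicon. Values relative to DMSO-treated controls; 4-parameter curves gave EC50.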

[8] = in vivo, po
Procedure: (§1) Compounds were initially synthesized and tested for potency (IC50) in a fluorogenic NS3/4 protease assay and cell-based HCV replicon system as described in Example 8 above. […] These leads were then further optimized for drug-like physical properties and administered in oral doses in Rattus sp. to assess liver, heart and plasma concentrations.
Compounds were tested for liver clearance over time following a single 3 mg/kg oral dose in rats.
as §1, with “described” for “described in Example 8”

[9] = Toxicological assessment in rats, up to 30 mg/kg orally BID for seven days; conditions: Rattus sp.
NS3-NS4 protease = biological target: T1, NS3-NS4 protease (Hepatitis C virus genotype 1a, UniProt P27958); test: NS3-NS4 protease assay / NS3 inhibition assay, Section C; format: biochemical; conditions: read-out: NS3-NS4 IC50
T1 construct: Recombinant E. coli or Baculovirus full-length NS3 was diluted to 3.33 μM with assay buffer; made in house; host or cells: E. coli or baculovirus (BV) system
T1 sequence (P27958 1027-1657): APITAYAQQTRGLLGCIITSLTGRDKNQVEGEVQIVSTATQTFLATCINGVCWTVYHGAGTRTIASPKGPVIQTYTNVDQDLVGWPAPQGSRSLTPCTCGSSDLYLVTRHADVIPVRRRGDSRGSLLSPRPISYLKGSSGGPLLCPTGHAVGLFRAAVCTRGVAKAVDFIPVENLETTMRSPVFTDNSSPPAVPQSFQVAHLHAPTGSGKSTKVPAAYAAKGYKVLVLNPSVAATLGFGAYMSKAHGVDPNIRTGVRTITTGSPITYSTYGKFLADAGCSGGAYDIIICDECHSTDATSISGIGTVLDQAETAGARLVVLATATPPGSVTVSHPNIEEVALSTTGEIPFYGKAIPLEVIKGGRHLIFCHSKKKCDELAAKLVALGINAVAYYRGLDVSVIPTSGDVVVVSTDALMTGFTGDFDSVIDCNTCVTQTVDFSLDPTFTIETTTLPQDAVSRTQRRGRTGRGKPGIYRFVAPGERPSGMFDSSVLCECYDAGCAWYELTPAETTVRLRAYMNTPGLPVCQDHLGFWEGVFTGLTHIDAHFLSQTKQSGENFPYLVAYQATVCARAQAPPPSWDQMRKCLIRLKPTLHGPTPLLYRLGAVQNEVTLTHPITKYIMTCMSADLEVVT
How it was run: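 Full-length NS3 (E. coli, 2 nM, or Baculovirus, 3 nM, in assay) precomplexed with excess NS4A-2 peptide, pre-incubated with compound 10 minutes at room temperature, then RETS1 substrate added. Fluorescence (ex 335/em 495 nm) read kinetically over 30 minutes; IC50s from four-parameter fit converted to Ki via Ki=IC50/(1+[S]/Km).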

[10] = system: HCV sub-genomic replicon, GS4.3; test: Quantitation by ELISA of NPTII in the HCV sub-genomic replicon, GS4.3, Section C; format: cell-based; conditions: Hepatitis C virus; GS4.3 cells, 72 h incubation; read-out: EC50

| SMILES | stability in vitro in rat hepatocyte incubation assay [3] | inhibition of hERG channel activity (hERG channel) | stability in vitro in dog hepatocyte incubation assay [4] | selectivity against a panel of other serine proteases [5] | stability in vitro in human hepatocyte incubation assay [6] | inhibition of Cytochrome P450 isoforms (Cytochrome P450 isoforms) | EC50 [7] | IC50 (NS3-NS4 protease) | EC50 [10] | other results |
| --- | --- | --- | --- | --- | --- | --- | --- | --- | --- | --- |
| CCOC(=O)[C@@]12C[C@H]1C=CCCCCC[C@H](NC(=O)OC(C)(C)C)C(=O)N1C[C@H](O)C[C@H]1C(=O)N2 |  |  |  |  |  |  |  |  |  | ring closure, yield of all isomers [1]: 26%; ring closure, isolated yield [2]: 52% |
| CC(C)(C)OC(=O)N[C@H]1CCCCC/C=C\[C@@H]2C[C@@]2(C(=O)NS(=O)(=O)C2CC2)NC(=O)[C@@H]2C[C@@H](OC(=O)N3CCc4ccccc4C3)CN2C1=O [AR261408] | exhibited stability | no significant inhibition | exhibited stability | high degree of selectivity | exhibited stability | no significant inhibition | ~2 nM |  |  |  |
| CC(C)(C)OC(=O)N[C@H]1CCCCC/C=C\[C@@H]2C[C@@]2(C(=O)NS(=O)(=O)C2CC2)NC(=O)[C@@H]2C[C@@H](OC(=O)N3Cc4ccccc4C3)CN2C1=O [AR294381] | exhibited stability | no significant inhibition | exhibited stability | high degree of selectivity | exhibited stability | no significant inhibition | ~2 nM |  |  |  |
| CC(C)(C)OC(=O)N[C@H]1CCCCCCC[C@@H]2C[C@@]2(C(=O)NS(=O)(=O)C2CC2)NC(=O)[C@@H]2C[C@@H](OC(=O)N3Cc4ccccc4C3)CN2C1=O [AR333833] | exhibited stability | no significant inhibition | exhibited stability | high degree of selectivity | exhibited stability | no significant inhibition | ~2 nM |  |  |  |
| CC(C)(C)OC(=O)N[C@H]1CCCCC/C=C\[C@@H]2C[C@@]2(C(=O)NS(=O)(=O)C2CC2)NC(=O)[C@@H]2C[C@@H](OC(=O)N3Cc4cccc(F)c4C3)CN2C1=O [AR334191] | exhibited stability | no significant inhibition | exhibited stability | high degree of selectivity | exhibited stability | no significant inhibition | ~2 nM |  |  | heart levels relative to liver concentrations in the same animals [8]: up to two orders of magnitude lower; plasma levels relative to liver concentrations in the same animals [8]: up to two orders of magnitude lower; safety margin above the presumptive efficacious dose (3 mg/kg) ([9]; 30 mg/kg BID for seven days vs 3 mg/kg): ≥ 10 fold; mortality, change in weight, abnormalities in clinical chemistries ([9]; 30 mg/kg orally BID for 7 days): no mortality, change in weight, or abnormalities in clinical chemistries were observed; toxicity ([9]; dosed for seven days at 30 mg/kg BID): did not display toxicity |
| COc1ccc(NS(=O)(=O)NC(=O)[C@@]23C[C@H]2/C=C\CCCCC[C@H](NC(=O)OC(C)(C)C)C(=O)N2C[C@H](OC(=O)N4Cc5ccccc5C4)C[C@H]2C(=O)N3)cc1 [Compound 129, (1S,4R,6S,14S,18R)-1,3-Dihydro-isoindole-2-carboxylic acid 14-tert-butoxycarbonylamino-4-(4-methoxyphenylaminosulfonyl-aminocarbonyl)-2,15-dioxo-3,16-diaza-tricyclo[14.3.0.0^4,6]nonadec-7-en-18-yl ester] |  |  |  |  |  |  |  | < 100 nM | < 100 nM |  |
| Cc1ccc(NS(=O)(=O)NC(=O)[C@@]23C[C@H]2/C=C\CCCCC[C@H](NC(=O)OC(C)(C)C)C(=O)N2C[C@H](OC(=O)N4Cc5ccccc5C4)C[C@H]2C(=O)N3)cc1 [Compound 130, (1S,4R,6S,14S,18R)-1,3-Dihydro-isoindole-2-carboxylic acid 14-tert-butoxycarbonylamino-4-(4-methylphenylaminosulfonyl-aminocarbonyl)-2,15-dioxo-3,16-diaza-tricyclo[14.3.0.0^4,6]nonadec-7-en-18-yl ester] |  |  |  |  |  |  |  | < 100 nM | < 100 nM |  |
| CC(C)(C)OC(=O)N[C@H]1CCCCC/C=C\[C@@H]2C[C@@]2(C(=O)NS(=O)(=O)Nc2ccc(C#N)cc2)NC(=O)[C@@H]2C[C@@H](OC(=O)N3Cc4ccccc4C3)CN2C1=O [Compound 131, (1S,4R,6S,14S,18R)-1,3-Dihydro-isoindole-2-carboxylic acid 14-tert-butoxycarbonylamino-4-(4-cyanophenylaminosulfonyl-aminocarbonyl)-2,15-dioxo-3,16-diaza-tricyclo[14.3.0.0^4,6]nonadec-7-en-18-yl ester] |  |  |  |  |  |  |  | < 100 nM | < 100 nM |  |
| CC(C)(C)OC(=O)N[C@H]1CCCCC/C=C\[C@@H]2C[C@@]2(C(=O)NS(=O)(=O)Nc2ccc(C(F)(F)F)cc2)NC(=O)[C@@H]2C[C@@H](OC(=O)N3Cc4ccccc4C3)CN2C1=O [Compound 132, (1S,4R,6S,14S,18R)-1,3-Dihydro-isoindole-2-carboxylic acid 14-tert-butoxycarbonylamino-4-(4-trifluoromethylphenylaminosulfonyl-aminocarbonyl)-2,15-dioxo-3,16-diaza-tricyclo[14.3.0.0^4,6]nonadec-7-en-18-yl ester] |  |  |  |  |  |  |  | < 100 nM | < 100 nM |  |
| CC(C)(C)OC(=O)N[C@H]1CCCCC/C=C\[C@@H]2C[C@@]2(C(=O)NS(=O)(=O)NC2CCC2)NC(=O)[C@@H]2C[C@@H](OC(=O)N3Cc4ccccc4C3)CN2C1=O [Compound 133, (1S,4R,6S,14S,18R)-1,3-Dihydro-isoindole-2-carboxylic acid 14-tert-butoxycarbonylamino-4-(cyclobutylaminosulfonyl-aminocarbonyl)-2,15-dioxo-3,16-diaza-tricyclo[14.3.0.0^4,6]nonadec-7-en-18-yl ester] |  |  |  |  |  |  |  | < 100 nM | < 100 nM |  |
| CC(C)(C)OC(=O)N[C@H]1CCCCC/C=C\[C@@H]2C[C@@]2(C(=O)NS(=O)(=O)NC2CCCC2)NC(=O)[C@@H]2C[C@@H](OC(=O)N3Cc4ccccc4C3)CN2C1=O [Compound 134, (1S,4R,6S,14S,18R)-1,3-Dihydro-isoindole-2-carboxylic acid 14-tert-butoxycarbonylamino-4-(cyclopentylaminosulfonyl-aminocarbonyl)-2,15-dioxo-3,16-diaza-tricyclo[14.3.0.0^4,6]nonadec-7-en-18-yl ester] |  |  |  |  |  |  |  | < 100 nM | < 100 nM |  |
| CC(C)(C)OC(=O)N[C@H]1CCCCC/C=C\[C@@H]2C[C@@]2(C(=O)NS(=O)(=O)NC2CCCCC2)NC(=O)[C@@H]2C[C@@H](OC(=O)N3Cc4ccccc4C3)CN2C1=O [Compound 135, (1S,4R,6S,14S,18R)-1,3-Dihydro-isoindole-2-carboxylic acid 14-tert-butoxycarbonylamino-4-(cyclohexylaminosulfonyl-aminocarbonyl)-2,15-dioxo-3,16-diaza-tricyclo[14.3.0.0^4,6]nonadec-7-en-18-yl ester] |  |  |  |  |  |  |  | < 100 nM | < 100 nM |  |
